Data published in patent US20220331348A1, “METHOD OF PREPARING PENTACYCLIC TRITERPENOID SAPONINS AND DRUG COMPOSITION” (CHINA PHARMACEUTICAL UNIVERSITY, priority 2019, published 2022).

Tests used:
[1] = test system: ulcerative colitis model mice induced by DSS; assay: Dextran sulphate sodium salt (DSS) induced ulcerative colitis model mice; format: in vivo, mouse; settings: DSS-induced mice; dose not given; vs model group
Protocol: C57BL/6 male mice with 6-8 weeks old were selected; a control group was fed with purified water; and a model group, a treatment group and a positive control group were fed with purified water containing 2% dextran sulphate sodium salt (DSS) (36000-50000 M.Wt) for 7 days and then with the purified water for 3 days, and drug intervention was conducted at the same time. The mice in the control group and the model group were orally administered with carboxymethyl cellulose sodium as a placebo, the mice in the treatment group were orally administered with the ziyuglycoside II (purchased from Shanghai Boka Chemistry Technology Co., Ltd) (with a dosage of 5 mg/kg), and the mice in the positive control group were orally administered with 5-aminosalicylic acid as a clinical drug (5-ASA, purchased from Shanghai Sangon Biological Engineering Co., Ltd) (with a dosage of 100 mg/kg). In the administration process, weight changes, feces characters and hematochezia conditions of the mice were observed and recorded every day and were scored, and disease activity indexes were calculated (Disease activity index, DAI).
A scoring rule and a calculation method were as follows: DAT=(weight score+diarrhea score+occult blood score)/3, wherein weight score: 0 (weight gained or unchanged), 1 (weight lost by 1-5%), 2 (weight lost by 6-10%), 3 (weight lost by 11-15%), 4 (weight lost by 15% or above); diarrhea score: 0 (normal feces), 2 (soft feces), 4 (feces sticking anuses or diarrhea); and occult blood score: 0 (negative occult blood), 2 (positive occult blood), and 4 (visible bleeding). Comparing differences in DAI of various groups, it can be known that the ziyuglycoside II has significant prevention and treatment effects on ulcerative colitis of the mice modeled by the dextran sulphate sodium salt (DSS).
The above mice were sacrificed by cervical dislocation at day 11, colon tissues were harvested, lengths of the colon tissues were measured for statistical summary, and differences in colon length of various groups were compared, from which, the ziyuglycoside II has significant prevention and treatment effect on the ulcerative colitis model mice.
Middle segments, with lengths of about 1 cm, of the colon tissues of the above mice were selected, soaked in a formalin solution for fixing overnight, embedded with paraffin and sliced, and the slices were subjected to HE staining. […] Particularly, compared with the positive drug group, the ziyuglycoside II has the advantage of maintaining a thickness of a muscular layer.
10 mg of proximal rectum segments of the colon tissues of the above mice were selected, PBS was added for homogenization, and centrifugation was conducted for taking a supernate. The supernate was subjected to ELISA detection, and protein quantification was conducted for inflammatory factors TNF-α and IL-lb.
10 mg of colon tissues of the above mice were selected for detection of ROS therein.
When the ulcerative colitis occurs, the inflammatory factors may destruct tight junction between intestinal tracts, and destruction of the tight junction enables functions of mucosal barriers to be lost and accelerates development of the diseases. 5 mg of colon tissues of the above mice were selected for qPCR analysis. […] This hints that the ziyuglycoside II further has the efficacy of increasing the expression level of the tight junction and then protecting a structure of each colon. […] Therefore, the ziyuglycoside II is expected to be useful for preparing the drug for preventing or treating the inflammatory bowel diseases such as the ulcerative colitis.

[2] = test system: TNBS modeled Crohn's disease model mice; assay: 2,4,6-trinitrobenzene sulfonic acid (TNBS) modeled Crohn's disease model mice; format: in vivo, mouse; settings: dose not given; for expression level of inflammatory factor IL-1β / expression level of inflammatory factor TNF-α: vs model group
Protocol: C57BL/6 male mice with 6-8 weeks old were selected and randomly divided into a control group, a mode group, a treatment group and a positive control group. Expect for the control group, after the mice in the rest groups anesthetized with isoflurane, hoses were carefully inserted into colons of the mice from anuses, and […] of 1.5% 2,4,6-trinitrobenzene sulfonic acid (TNBS) was slowly injected. Before the hoses were pulled out, the mice were placed upside down for 1 min. First intragastric administration was conducted at the day of enema treatment, the mice in the control group and the model group were orally administered with carboxymethyl cellulose sodium as a placebo, the mice in the treatment group were orally administered with the ziyuglycoside II (purchased from Shanghai Boka Chemistry Technology Co., Ltd) (with a dosage of 5 mg/kg), and the mice in the positive drug group were orally administered with 5-aminosalicylic acid as a clinical drug (5-ASA, purchased from Shanghai Sangon Biological Engineering Co., Ltd) (with a dosage of 100 mg/kg). Administration was continuously conducted for 7 days. In the administration process, the states of the mice were observed every day, and weight changes of the mice were recorded.
Differences in weight change of the mice in various groups were compared, from which, ziyuglycoside II has the treatment effect on the 2, 4, 6-trinitrobenzene sulfonic acid (TNBS) modeled Crohn's disease model mice.
The above mice were sacrificed by cervical dislocation at day 8, colon tissues were harvested, lengths of the colon tissues were measured for statistical summary, and differences in colon length of various groups were compared, from which, the ziyuglycoside II has significant treatment effect on the Crohn's disease model mice. […] 10 mg of proximal rectum segments of the colon tissues of the above mice were selected, PBS was added for homogenization, and centrifugation was conducted for taking a supernate. The supernate was subjected to ELISA detection, and protein quantification was conducted for inflammatory factors TNF- and IL-1. […] Myeloperoxidase (MPO) is an enzyme specific to neutrophils, and the amount of the neutrophils in the intestinal tracts may be reflected by detecting the MPO level. 5 mg of proximal rectum segments of the colon tissues of the above mice were selected, PBS was added for homogenization, and the content of the MPO in a homogenate was detected with a MPO kit (purchased from Nanjing Jiancheng Bioengineering Institute). […] Therefore, the ziyuglycoside II is expected to be useful for preparing the drug for preventing or treating the inflammatory bowel diseases such as the Crohn's disease.

[3] = test system: human ADPKD cyst lining epithelial cell lines WT9-12; assay: Proliferation of polycystic kidney epithelial cells (CCK-8 method); format: cell-based; settings: polycystic kidney epithelial cells, 10 μM, 48 h, CCK-8, n = 6
Description: Cell and reagent: complete media for human ADPKD cyst lining epithelial cell lines WT9-12 and DMEM were purchased from ATCC Company; fetal calf serums were purchased from Gibco Company; Cell Counting Kit-8 was purchased from DOJINDO Company; Click-iT® EdU Imaging Kits were purchased from Invitrogen™ Thermo Fisher Scientific Company; Caspase -3/CPP32 Colorimetric Assay Kit was purchased from BioVision Company; Annexin V/PI double-staining flow type cell apoptosis detection kits were purchased from Bender Company; and anti-Phospho-(AMPKa, mTOR, p70S6K, 4E-BP1) antibodies were purchased from Cell Signaling Technology Company.
The influence of 2-DG on proliferation of the polycystic kidney epithelial cells was detected with a CCK-8 method: a DMEM complete medium containing 10% fetal calf serum (FBS) was prepared. The polycystic kidney epithelial cells were cultured in an incubator with 5% CO2 at 37° C. after being recovered, a solution was replaced every other day, the polycystic kidney epithelial cells were passaged every 2-3 days, and the cells were in a growing state of adhering to the wall. After trypsin enzyme digestion, cells were resuspended by using a complete medium, the concentration of a polycystic kidney epithelial cell suspension was regulated to be 3×10^7/L, the polycystic kidney epithelial cell suspension was inoculated to 96-well plate by […] per well for culture for 24 h, and the suspension was replaced by a culture medium containing 0.1% FBS for synchronization for 24 h.

Row | Structure (SMILES) | DAI scores of the treatment group [1] | colon length of the treatment group compared with the control group [2] | expression level of inflammatory factor IL-1β [2] | expression level of inflammatory factor TNF-α [2] | inhibition at 10 µM ([3]; Homo sapiens, Epithelial cell, read-out: Inhibition rate (%)) [%] | Inhibition rate (%) [3] [%]
1 | C[C@@H]1CC[C@]2(C(=O)O[C@@H]3O[C@H](CO)[C@@H](O)[C@H](O)[C@H]3O)CC[C@]3(C)C(=CC[C@@H]4[C@@]5(C)CC[C@H](O[C@@H]6OC[C@H](O)[C@H](O)[C@H]6O)C(C)(C)[C@@H]5CC[C@]43C)[C@@H]2[C@]1(C)O [(XII), ziyuglycoside I] | obviously lower than those of the model group | nearly no difference | significantly lower than those of the model group | significantly lower than those of the model group | 69.2 ± 1.7 | 
2 | C[C@@H]1O[C@@H](O[C@H]2[C@H](O[C@H]3CC[C@@]4(C)[C@@H](CC[C@]5(C)[C@@H]4CC=C4[C@@H]6CC(C)(C)CC[C@]6(C(=O)O[C@@H]6O[C@H](CO[C@@H]7O[C@H](CO)[C@@H](O[C@@H]8O[C@@H](C)[C@H](O)[C@@H](O)[C@H]8O)[C@H](O)[C@H]7O)[C@@H](O)[C@H](O)[C@H]6O)CC[C@]45C)[C@]3(C)CO)OC[C@H](O)[C@@H]2O)[C@H](O)[C@H](O)[C@H]1O [(XI), hederacoside C] | obviously lower than those of the model group | nearly no difference | significantly lower than those of the model group | significantly lower than those of the model group |  | 64.4 ± 2.6
